The results in this text go back to US10426758B2, “Sibiriline derivatives for use for preventing and/or treating disorders associated with cellular necroptosis” (Institut National de la Sante et de la Recherche Medicale …, priority 2015, dated 2019).

For one assay, the target named is T1, AURKC (Homo sapiens, UniProt Q9UQB9).
T1 sequence (Q9UQB9 1-309): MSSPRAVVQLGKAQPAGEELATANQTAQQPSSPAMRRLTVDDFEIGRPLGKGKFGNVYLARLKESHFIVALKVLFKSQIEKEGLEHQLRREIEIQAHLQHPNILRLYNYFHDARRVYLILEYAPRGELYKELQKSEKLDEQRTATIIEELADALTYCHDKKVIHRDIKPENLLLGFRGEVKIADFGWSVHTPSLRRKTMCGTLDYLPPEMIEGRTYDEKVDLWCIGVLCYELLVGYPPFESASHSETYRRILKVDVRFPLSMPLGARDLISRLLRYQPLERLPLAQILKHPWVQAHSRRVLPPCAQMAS
The assay can be described thus: Competition binding assay for kinase targets of Sib (456 kinases). To be noted: remaining kinase on the matrix after competition, read-out: Percent Control (%). As for the experimental part: (§1) The assay is performed by combining three components: DNA-tagged kinase (a total of 456 kinases were tested); immobilized ligand; and a test compound (here Sib). The ability of Sib to compete with the immobilized ligand is measured via quantitative PCR of the DNA tag.

A further assay concerns the target KIT(V559D) (Homo sapiens, UniProt P10721, V559D). The description is as above. The settings on record: remaining kinase on the matrix after competition, read-out: Percent Control (%). As for the experimental part: as §1
Assay [1] concerns the target T2, JAK2 (JH1domain-catalytic) (Homo sapiens, UniProt O60674).
T2 construct: JAK2(JH1domain-catalytic)
The description is as above. To be noted: remaining kinase on the matrix after competition, read-out: Percent Control (%). As for the experimental part:
as §1

The target of another assay is KIT (Homo sapiens, UniProt P10721). Described as above. To be noted: remaining kinase on the matrix after competition, read-out: Percent Control (%). As to the method: as §1
Chain of KIT (P10721 26-976): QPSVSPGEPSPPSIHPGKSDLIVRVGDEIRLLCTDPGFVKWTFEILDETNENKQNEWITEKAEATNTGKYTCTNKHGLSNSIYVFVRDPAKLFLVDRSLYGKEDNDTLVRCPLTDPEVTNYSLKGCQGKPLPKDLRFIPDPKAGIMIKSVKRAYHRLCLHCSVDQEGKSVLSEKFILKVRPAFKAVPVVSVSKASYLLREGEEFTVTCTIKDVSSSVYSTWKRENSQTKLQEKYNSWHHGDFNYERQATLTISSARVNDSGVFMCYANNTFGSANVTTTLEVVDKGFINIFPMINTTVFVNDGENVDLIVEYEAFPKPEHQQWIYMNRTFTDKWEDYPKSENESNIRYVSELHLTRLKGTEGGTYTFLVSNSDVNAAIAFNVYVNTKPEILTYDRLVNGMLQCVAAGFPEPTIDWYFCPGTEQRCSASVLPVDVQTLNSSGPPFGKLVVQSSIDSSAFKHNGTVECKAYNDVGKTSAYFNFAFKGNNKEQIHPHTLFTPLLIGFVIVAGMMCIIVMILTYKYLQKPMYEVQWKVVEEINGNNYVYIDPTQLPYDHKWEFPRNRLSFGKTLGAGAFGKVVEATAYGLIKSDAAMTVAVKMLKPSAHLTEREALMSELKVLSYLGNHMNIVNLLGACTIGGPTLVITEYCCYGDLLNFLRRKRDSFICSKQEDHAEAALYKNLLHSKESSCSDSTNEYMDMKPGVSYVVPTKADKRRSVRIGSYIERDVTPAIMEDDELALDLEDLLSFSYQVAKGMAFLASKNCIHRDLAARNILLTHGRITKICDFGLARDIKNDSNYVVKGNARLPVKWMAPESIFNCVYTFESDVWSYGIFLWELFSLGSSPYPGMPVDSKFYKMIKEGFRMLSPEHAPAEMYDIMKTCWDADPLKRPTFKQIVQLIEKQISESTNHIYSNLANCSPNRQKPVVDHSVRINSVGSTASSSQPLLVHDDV
A further assay concerns L929 cells. As to the kind of experiment: Clonogenic assay (CA). It counts as cell-based. The settings on record: 10 μM for 24 hours with TNF-α (10 ng/ml)/z-VAD (20 μM); 15 days of culture. As to the method: This effect of Sibiriline on necroptosis was verified using clonogenic assay (CA). CA is an in vitro cell survival assay based on the ability of a single cell to grow into a colony.
L929 cells are treated by TNF-α (10 ng/ml)/z-VAD (20 μM) w/or w/o 10 μM Sib for 24 hours. After treatment, cells are seeded out in appropriate dilutions (here 5,000 cells per well) to form colonies in 2 weeks. Colonies are fixed with ice cold methanol and stained with crystal violet.

Assay [2] concerns the target T3, Human RIPK1 full length GST-tagged (Homo sapiens, UniProt Q13546).
T3 construct: Human RIPK1 full length GST-tagged; made in house; host or cells: Sf9 insect cells (Bac-to-Bac baculovirus system)
T3 sequence (Q13546 1-671): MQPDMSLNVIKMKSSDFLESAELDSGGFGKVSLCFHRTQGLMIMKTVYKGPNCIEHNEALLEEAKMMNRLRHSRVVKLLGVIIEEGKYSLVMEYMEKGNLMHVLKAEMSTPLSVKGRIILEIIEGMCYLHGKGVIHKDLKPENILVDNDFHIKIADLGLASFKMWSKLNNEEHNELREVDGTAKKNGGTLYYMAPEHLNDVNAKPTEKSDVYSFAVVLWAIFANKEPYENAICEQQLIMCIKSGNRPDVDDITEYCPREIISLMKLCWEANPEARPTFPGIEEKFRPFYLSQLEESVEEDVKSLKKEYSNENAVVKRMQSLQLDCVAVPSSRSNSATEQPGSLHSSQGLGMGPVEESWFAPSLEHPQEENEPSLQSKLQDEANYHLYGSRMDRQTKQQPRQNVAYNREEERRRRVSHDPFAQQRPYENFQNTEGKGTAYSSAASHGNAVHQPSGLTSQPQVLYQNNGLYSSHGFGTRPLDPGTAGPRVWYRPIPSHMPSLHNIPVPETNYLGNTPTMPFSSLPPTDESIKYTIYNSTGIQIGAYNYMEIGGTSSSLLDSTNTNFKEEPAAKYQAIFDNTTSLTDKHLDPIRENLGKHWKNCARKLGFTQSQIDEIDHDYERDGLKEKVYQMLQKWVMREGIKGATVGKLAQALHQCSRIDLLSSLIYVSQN
The assay can be described thus: RIPK1 autophosphorylation assay. The settings on record: radioactively labeled RIPK1, [γ-32P] ATP, 30 minutes at 30° C. It counts as biochemical. As to the method: Human RIPK1 full length GST-tagged was baculovirally expressed in Sf9 cells according to manufacturer's instructions (Bac-to-Bac expression system, Invitrogen) and purified using gluthation-sepharose beads (GE Healthcare). The elution was made in 50 mM Tris-HCl, pH 8.0 buffer supplemented with 30 mM reduced gluthatione (Sigma). The protocol used to detect the enzymatic activity is adapted from Miao and Degterev (Methods Mol. Biol. 2009, 559, 79-93). Kinase reaction was initiated mixing 5 μl of eluted RIPK1, 5 μl of 3× kinase reaction buffer (5 mM MOPS pH 7.2, 2.5 mM β-glycerophosphate, 4 mM MgCl2, 2.5 mM MnCl2, 1 mM EGTA, 0.4 mM EDTA, 50 μg/ml BSA, 0.05 mM DTT), 2 μl H2O and 3 μl of the tested molecule. The mixture was kept on ice for 10 minutes. During the incubation, the ATP solution was prepared by mixing 5 μl of 3× kinase reaction buffer, 4 μl H2O, 6 μl cold ATP at 150 μM and 2 μCi of [γ-^32P] ATP. Add the ATP solution and the tested inhibitor to the kinase and incubate for 30 minutes at 30° C. To stop the enzymatic reaction, 5 μl of loading buffer were added and solution was heated for 3 minutes at 95° C. 25 μl of each reaction were loaded per well in pre-cast NuPage 12% Bis-Tris gel (Life Technology). Autophosphorylated RIPK1 band was visualized on radiographic film after 6 h exposition at −80° C.

T2 sequence (O60674 849-1124 limits assumed): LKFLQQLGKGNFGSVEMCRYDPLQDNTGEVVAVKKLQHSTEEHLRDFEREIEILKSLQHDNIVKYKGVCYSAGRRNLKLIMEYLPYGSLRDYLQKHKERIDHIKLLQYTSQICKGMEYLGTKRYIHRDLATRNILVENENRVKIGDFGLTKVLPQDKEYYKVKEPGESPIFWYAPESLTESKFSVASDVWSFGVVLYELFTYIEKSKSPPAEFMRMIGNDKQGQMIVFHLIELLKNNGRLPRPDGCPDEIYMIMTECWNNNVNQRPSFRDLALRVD
Chain of KIT(V559D) (P10721 26-976 V559D): as the sequence (P10721 26-976) above, with V534D counted along it

`Oc1ccc(-c2cc3cccnc3[nH]2)cc1` [compound 2, 4-(1H-pyrrolo[2,3-b]pyridin-2-yl)phenol]: the remaining binding at 10 µM at AURKC worked out at 0.7%; at KIT(V559D), 0.4%; in assay [1] it was 0.2%; on KIT, 0.8%. The “cell colonies (cellular growth) after treatment” value with L929 cells is “can restore the cellular growth and protect cells from death”. Also, the “inhibition of RIPK1 autophosphorylation” value is reported as “dose-dependent inhibition” in assay [2] and “inhibit the RIPK1 autophosphorylation” in assay [2] (listed as Sib).
